Laboratory results as given in ChEMBL document CHEMBL1201862, “PubChem BioAssay data set” (2004).
Calls of active or inactive are those of the source.

Tests used:
Cytochrome P450 1A2 = molecular target: T1, Cytochrome P450 1A2 (Homo sapiens, UniProt P05177);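 note: PubChem cytochrome P450 panel assay, CYP1A2 panel member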
T1 sequence (P05177 whole entry): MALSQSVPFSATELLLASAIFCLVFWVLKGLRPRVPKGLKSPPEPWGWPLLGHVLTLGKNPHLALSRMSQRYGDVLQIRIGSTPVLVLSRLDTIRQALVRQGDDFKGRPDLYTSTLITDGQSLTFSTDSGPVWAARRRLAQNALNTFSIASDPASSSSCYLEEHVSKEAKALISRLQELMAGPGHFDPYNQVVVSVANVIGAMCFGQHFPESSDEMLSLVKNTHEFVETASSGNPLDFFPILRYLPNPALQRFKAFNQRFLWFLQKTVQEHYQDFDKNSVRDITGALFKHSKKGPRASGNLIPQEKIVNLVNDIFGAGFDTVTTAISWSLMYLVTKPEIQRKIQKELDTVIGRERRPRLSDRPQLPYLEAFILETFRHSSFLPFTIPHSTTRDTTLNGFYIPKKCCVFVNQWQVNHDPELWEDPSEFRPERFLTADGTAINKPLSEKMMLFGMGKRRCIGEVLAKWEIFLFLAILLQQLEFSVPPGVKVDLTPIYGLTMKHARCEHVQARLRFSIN

Cytochrome P450 3A4 [1] = molecular target: T2, Cytochrome P450 3A4 (Homo sapiens, UniProt P08684);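 note: CYP3A4 tested as one member of a cytochrome P450 panel screen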
T2 sequence (P08684 whole entry): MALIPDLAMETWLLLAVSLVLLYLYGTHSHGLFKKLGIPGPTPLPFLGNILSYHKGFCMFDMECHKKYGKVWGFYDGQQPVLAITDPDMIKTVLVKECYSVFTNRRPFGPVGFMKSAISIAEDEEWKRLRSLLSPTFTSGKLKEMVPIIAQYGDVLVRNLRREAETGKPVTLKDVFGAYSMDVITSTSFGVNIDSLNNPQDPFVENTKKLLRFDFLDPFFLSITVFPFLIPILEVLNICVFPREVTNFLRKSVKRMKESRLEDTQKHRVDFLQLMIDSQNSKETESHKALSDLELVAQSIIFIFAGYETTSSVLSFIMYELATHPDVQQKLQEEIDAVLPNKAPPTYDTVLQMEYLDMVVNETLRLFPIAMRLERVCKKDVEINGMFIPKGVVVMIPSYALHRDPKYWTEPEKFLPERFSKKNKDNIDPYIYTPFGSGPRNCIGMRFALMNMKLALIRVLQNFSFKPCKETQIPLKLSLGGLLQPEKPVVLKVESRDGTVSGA

Cytochrome P450 2D6 = Cytochrome P450 2D6 (Homo sapiens, UniProt P10635);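 note: CYP2D6 member of a cytochrome P450 panel assay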
Sequence of Cytochrome P450 2D6 (P10635 whole entry): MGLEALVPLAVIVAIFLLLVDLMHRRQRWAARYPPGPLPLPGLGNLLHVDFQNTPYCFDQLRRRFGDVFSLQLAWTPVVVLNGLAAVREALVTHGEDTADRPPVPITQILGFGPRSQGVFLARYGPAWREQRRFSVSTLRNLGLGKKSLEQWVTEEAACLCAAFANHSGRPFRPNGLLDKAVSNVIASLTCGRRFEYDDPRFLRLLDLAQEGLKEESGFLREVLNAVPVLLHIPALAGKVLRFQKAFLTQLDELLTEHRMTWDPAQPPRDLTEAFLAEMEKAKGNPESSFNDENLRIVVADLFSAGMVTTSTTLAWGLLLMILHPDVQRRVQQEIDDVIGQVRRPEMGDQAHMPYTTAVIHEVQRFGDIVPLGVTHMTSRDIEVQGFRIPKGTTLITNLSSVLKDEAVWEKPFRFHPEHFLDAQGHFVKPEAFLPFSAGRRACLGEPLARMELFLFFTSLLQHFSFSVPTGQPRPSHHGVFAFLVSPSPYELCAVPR

[2] = Luminescence Cell-Based Dose Retest to Confirm Inhibitors of Cancer Stem Cells. [Related pubchem assays (depositor defined):AID2717, AID2721]; format: functional; settings: Homo sapiens
[3] = viability loss of HMLE_sh_eGFP cells – cell-based, luminescence, counter-screen for HMLE_sh_ECad selective toxicity project, dose response (AID 463074); format: functional, Homo sapiens;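 note: HMLE human mammary epithelial cells expressing control shRNA against eGFP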
[4] = Luminescence Cell-Based Dose Confirmation HTS to Identify Activators of 5'UTR Stem-Loop Driven Alpha-Synuclein mRNA Translation in H4 Neuroglioblastoma Cells. [Related pubchem assays: 1829 (Project Summary), 1814 (Primary HTS)]; format: functional
HEK293 [5] = assay: NOD2 signaling inhibitors in MDP-stimulated cells, cell-based, uHTS, luminescence (AID 2001); format: functional; settings: Homo sapiens
H4 = assay: Luminescence Cell-Based Dose Response HTS to Identify Activators of 5'UTR Stem-Loop Driven Prion Protein mRNA Translation in H4 Neuroglioblastoma Cells. [Related pubchem assays: 1829 (Project Summary), 1814 (Primary HTS)]; format: functional; settings: Homo sapiens
HEK293 [6] = assay: cells; format: functional, cell-based; settings: Homo sapiens
[7] = Luminescence Cell-Based Dose Response HTS to Identify Activators of Luciferase Translation or Activity in H4 […] Cells. [Related pubchem assays: 1829 (Project Summary), 1814 (Primary HTS)]; format: functional
HEK293 [8] = assay: cells; format: functional, cell-based; settings: Homo sapiens; remark: listed apart in the source
HEK293 [9] = assay: inhibition of NOD1-driven NF-kB reporter – cell-based, luminescence, uHTS, primary screen (AID 1578); format: functional; settings: Homo sapiens
[10] = Luminescence Cell-Based Dose Response HTS to Identify Inhibitors of 5'UTR Stem-Loop Driven Prion Protein mRNA Translation in H4 Neuroglioblastoma Cells. [Related pubchem assays: 1827 (Project Summary), 1813 (Primary HTS)]; format: functional
[11] = HEK-293T viability loss after treatment – luminescence, T-cell screen hits, cytotoxicity control for TCR NF-kB inhibitor project, dose response (AID 489026); format: functional, cell-based;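 note: cells exposed to compound about 14 hours before the viability readout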
[12] = luciferase reporter signal suppression in cells – H4 neuroglioma cells, luminescence, dose response (AID 1990); format: functional, cell-based
BJ [13] = assay: BJ-TERT-LT-ST fibroblast viability loss – cell-based, RAS-independent, luminescence, dose response (AID 1935); format: functional; settings: Homo sapiens;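 note: BJ fibroblasts immortalized with TERT plus LT and ST oncogenes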
[14] = DRD fibroblast viability loss – cell-based, non-viral oncogenic, luminescence, dose response (AID 1934); format: functional; settings: Homo sapiens
BJ [15] = assay: cells; format: functional, cell-based; settings: Homo sapiens
[16] = alpha-synuclein stem-loop luciferase translation blockers – H4 neuroglioma cells, luminescence, confirmation (AID 1988); format: functional, cell-based
BJ [17] = assay: BJ-TERT fibroblast viability loss – cell-based, RAS-independent, luminescence, dose response (AID 1933); format: functional; settings: Homo sapiens
[18] = molecular target: Peroxisome proliferator-activated receptor gamma/Nuclear receptor coactivator 2 (Homo sapiens, UniProt P37231); assay: (§1) TR-FRET dose response biochemical High Throughput Screening assay for agonists of the steroid receptor coactivator 2 (SRC-2) recruitment by the peroxisome proliferator-activated receptor gamma (PPAR gamma): non-selective agonists. [Related pubchem assays: 1297, 1032 ]; format: functional
[19] = molecular target: Peroxisome proliferator-activated receptor gamma/Nuclear receptor coactivator 3 (Homo sapiens, UniProt P37231); assay: as §1, with “3 (SRC-3)” for “2 (SRC-2)”, “1301 (Confirmation screen.), 1048 (Primary screen.)]” for “1297, 1032 ]”; format: functional
[20] = molecular target: T3, High affinity choline transporter 1 (Homo sapiens, UniProt Q9GZV3); assay: human choline transporter blockers, potency – cell-based, 5-point CRC, membrane potential dye, dose response (AID 504840); format: functional
T3 sequence (Q9GZV3 whole entry): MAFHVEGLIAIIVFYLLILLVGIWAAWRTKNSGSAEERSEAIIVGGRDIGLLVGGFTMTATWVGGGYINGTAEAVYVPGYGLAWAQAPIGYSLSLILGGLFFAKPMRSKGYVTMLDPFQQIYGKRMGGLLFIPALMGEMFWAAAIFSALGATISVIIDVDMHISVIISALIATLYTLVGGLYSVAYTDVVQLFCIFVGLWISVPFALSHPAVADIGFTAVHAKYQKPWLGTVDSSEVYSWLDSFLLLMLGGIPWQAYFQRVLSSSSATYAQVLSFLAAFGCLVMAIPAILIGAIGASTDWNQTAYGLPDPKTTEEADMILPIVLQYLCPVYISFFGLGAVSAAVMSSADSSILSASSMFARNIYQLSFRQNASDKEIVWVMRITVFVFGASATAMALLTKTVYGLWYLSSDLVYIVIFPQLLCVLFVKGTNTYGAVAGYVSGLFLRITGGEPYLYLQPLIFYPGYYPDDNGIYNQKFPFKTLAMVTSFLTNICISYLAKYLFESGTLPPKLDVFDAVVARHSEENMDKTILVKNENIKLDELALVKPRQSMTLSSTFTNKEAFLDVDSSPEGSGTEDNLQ

[21] = molecular target: Peroxisome proliferator-activated receptor gamma/Nuclear receptor coactivator 1 (Homo sapiens, UniProt P37231); assay: as §1, with “1 (SRC-1)” for “2 (SRC-2)”, “assays (depositor defined):AID1300, AID1808, AID504735, AID631]” for “assays: 1297, 1032 ]”; format: protein assay
Sequence of Peroxisome proliferator-activated receptor gamma/Nuclear receptor coactivator 1 (P37231 whole entry): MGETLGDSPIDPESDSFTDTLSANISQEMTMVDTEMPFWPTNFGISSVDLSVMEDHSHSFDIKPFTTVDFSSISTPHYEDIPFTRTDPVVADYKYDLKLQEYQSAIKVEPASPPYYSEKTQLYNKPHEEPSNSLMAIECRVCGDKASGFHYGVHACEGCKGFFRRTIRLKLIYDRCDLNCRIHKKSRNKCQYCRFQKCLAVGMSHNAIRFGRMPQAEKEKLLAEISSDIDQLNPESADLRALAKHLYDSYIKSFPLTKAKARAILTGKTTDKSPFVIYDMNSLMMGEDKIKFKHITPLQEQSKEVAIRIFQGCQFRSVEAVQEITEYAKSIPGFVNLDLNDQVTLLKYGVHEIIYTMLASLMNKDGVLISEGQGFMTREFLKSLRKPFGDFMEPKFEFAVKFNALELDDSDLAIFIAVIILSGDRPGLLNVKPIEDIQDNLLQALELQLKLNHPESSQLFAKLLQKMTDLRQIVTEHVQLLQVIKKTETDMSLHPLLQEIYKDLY
Sequence of Peroxisome proliferator-activated receptor gamma/Nuclear receptor coactivator 1 (Q15788 whole entry, further chain): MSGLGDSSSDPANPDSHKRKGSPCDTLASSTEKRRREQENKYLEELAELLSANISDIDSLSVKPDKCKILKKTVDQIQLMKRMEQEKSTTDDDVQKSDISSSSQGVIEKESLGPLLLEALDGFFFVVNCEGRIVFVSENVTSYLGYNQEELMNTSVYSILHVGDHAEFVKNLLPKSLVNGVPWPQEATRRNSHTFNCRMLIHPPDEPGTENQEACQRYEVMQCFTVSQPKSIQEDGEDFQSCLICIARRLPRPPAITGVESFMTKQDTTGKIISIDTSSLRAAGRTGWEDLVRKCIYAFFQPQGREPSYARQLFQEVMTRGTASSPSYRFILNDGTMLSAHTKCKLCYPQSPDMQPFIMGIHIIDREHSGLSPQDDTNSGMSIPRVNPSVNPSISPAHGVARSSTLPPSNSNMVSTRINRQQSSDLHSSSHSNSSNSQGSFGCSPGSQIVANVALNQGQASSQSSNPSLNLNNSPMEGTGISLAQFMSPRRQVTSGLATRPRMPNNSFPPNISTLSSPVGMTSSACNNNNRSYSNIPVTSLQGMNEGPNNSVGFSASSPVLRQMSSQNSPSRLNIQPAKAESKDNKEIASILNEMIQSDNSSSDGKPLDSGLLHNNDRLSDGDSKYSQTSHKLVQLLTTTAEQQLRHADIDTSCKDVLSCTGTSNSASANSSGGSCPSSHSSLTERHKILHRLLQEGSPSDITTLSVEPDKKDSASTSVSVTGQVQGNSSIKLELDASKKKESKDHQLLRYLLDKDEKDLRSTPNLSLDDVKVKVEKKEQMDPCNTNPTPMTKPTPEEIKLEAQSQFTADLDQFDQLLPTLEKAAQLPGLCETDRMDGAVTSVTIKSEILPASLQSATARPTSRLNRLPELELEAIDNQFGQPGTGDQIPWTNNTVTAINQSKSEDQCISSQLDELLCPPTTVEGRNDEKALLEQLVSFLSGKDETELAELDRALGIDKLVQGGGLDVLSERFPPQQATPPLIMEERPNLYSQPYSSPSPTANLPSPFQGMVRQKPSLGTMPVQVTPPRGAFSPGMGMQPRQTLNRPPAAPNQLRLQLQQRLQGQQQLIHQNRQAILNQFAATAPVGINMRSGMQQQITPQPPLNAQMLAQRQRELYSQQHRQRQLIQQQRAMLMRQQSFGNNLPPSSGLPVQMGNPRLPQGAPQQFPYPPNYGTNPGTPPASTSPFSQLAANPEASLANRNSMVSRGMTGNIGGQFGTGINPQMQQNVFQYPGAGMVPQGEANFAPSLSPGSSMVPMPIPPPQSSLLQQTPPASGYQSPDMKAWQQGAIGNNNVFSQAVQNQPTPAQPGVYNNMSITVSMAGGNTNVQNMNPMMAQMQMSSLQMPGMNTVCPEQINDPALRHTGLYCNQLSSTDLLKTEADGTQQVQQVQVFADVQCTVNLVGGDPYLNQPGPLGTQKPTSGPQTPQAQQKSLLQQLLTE

[22] = viability of uninfected HEp-2 cells – cell-based, HTS, cytotoxicity control for RSV inhibitor project, dose response (AID 2410); format: functional; settings: human respiratory syncytial virus
[23] = activation of miR-122 Renilla sensor silencing – cell-based, Huh7 psiCHECK-miR122, Renilla luciferase, cherry-picked, dose response (AID 651956); format: functional;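 note: huh7 hepatoma cells stably carrying a psiCHECK-2 miR-122 sensor plasmid; renilla luciferase signal reporting endogenous miR-122 activity after 48 h compound exposure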
Cytochrome P450 3A4 [24] = molecular target: T2, Cytochrome P450 3A4; remark: listed apart in the source
Cytochrome P450 2C9 = Cytochrome P450 2C9 (Homo sapiens, UniProt P11712)
Sequence of Cytochrome P450 2C9 (P11712 whole entry, the tested form may be a part): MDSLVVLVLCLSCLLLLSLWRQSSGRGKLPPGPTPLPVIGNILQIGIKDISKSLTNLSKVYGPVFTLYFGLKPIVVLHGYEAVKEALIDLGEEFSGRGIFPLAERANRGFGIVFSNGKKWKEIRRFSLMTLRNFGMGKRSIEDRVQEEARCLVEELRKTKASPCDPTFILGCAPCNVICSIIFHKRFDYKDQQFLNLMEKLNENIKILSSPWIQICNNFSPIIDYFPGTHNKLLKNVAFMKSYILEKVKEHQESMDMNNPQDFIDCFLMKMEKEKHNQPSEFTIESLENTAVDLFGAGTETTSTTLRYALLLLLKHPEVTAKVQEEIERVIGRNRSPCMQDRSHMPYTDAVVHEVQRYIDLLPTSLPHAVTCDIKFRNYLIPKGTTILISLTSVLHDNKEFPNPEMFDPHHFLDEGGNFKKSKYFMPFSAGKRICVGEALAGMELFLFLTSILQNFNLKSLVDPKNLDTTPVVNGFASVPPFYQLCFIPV

[25] = molecular target: T4, Carboxy-terminal domain RNA polymerase II polypeptide A small phosphatase 1 (Homo sapiens, UniProt Q9GZU7); assay: CTDSP1 inhibitors, concentration-response, biochemical, absorbance readout, ultra-high-throughput screen actives (AID 540297); format: functional
T4 sequence (Q9GZU7 whole entry): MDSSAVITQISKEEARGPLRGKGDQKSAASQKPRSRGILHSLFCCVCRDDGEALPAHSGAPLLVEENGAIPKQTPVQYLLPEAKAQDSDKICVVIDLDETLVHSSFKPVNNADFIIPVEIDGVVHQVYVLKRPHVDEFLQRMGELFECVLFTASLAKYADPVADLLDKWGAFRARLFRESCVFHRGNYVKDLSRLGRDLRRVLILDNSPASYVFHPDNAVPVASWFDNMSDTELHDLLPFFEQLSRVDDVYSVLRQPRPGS

Cytochrome P450 2C19 = Cytochrome P450 2C19 (Homo sapiens, UniProt P33261); assay: Cytochrome panel assay with activity outcomes. Panel member name: p450-cyp2c19 Compounds with AC50 equal or less than 10 uM are considered active; format: functional
Sequence of Cytochrome P450 2C19 (P33261 whole entry): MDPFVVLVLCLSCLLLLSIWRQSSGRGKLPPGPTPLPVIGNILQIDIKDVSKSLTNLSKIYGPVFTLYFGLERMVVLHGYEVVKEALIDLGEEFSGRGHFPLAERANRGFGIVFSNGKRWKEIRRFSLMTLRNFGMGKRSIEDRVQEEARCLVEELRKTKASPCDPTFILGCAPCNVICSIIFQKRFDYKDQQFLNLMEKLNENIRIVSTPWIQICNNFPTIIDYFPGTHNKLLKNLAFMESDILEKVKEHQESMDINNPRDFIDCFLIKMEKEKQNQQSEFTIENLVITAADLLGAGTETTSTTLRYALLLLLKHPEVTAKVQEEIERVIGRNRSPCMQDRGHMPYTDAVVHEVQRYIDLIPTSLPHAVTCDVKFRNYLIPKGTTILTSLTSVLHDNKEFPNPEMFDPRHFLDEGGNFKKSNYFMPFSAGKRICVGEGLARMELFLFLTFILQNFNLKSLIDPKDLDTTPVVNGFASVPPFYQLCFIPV

[26] = molecular target: T5, Heat shock factor protein 1 (Mus musculus, UniProt P38532); assay: enhancement of HSF1-driven luciferase signal – cell-based, NIH3T3, luminescence, dose retest, confirmation (AID 435004); format: functional;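 note: stress induced by proteasome inhibitor MG132 added 30 min after compound; luciferase reporter driven by HSF1 response element in NIH3T3 cells; actives raise luminescence as potentiators of the MG132 stress response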
T5 sequence (P38532 whole entry): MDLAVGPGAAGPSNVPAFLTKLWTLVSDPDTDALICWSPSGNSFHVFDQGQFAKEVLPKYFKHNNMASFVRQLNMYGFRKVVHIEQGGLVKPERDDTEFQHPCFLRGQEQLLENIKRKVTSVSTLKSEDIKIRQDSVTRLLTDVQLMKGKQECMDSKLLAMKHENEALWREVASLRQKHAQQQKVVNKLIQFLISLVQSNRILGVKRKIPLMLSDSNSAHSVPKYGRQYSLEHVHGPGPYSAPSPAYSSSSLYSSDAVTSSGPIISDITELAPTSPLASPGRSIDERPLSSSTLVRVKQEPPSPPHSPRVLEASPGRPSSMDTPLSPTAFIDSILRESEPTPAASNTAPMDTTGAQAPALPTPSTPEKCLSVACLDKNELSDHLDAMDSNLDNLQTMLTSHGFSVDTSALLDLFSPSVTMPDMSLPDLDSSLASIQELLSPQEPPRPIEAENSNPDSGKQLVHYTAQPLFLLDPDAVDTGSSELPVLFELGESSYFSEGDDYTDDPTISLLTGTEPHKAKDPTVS

## COc1ccc2c(=O)c(-c3ccccc3C)c(C)oc2c1
Cytochrome P450 1A2
  AC50: 31.6 µM (inconclusive)
Cytochrome P450 3A4 [1]
  AC50: inconclusive
Cytochrome P450 2D6
  AC50: inconclusive

## COc1ccc(CCNc2cc(C)nc3c(-c4ccc(Cl)cc4)cnn23)cc1OC
[2]
  AC50: 4.77 µM (active)
[3]
  AC50: 24.1 µM (active)

## CCn1c(SCC(=O)N2CCN(c3ccc(F)cc3)CC2)nc2ccccc2c1=O
[2]
  AC50: 20.1 µM (active)
[3]
  AC50: 58.9 µM (active)

## Cc1ccc(C(=O)c2cnc3cc4c(cc3c2S(=O)(=O)c2ccccc2)OCCO4)cc1
[4]
  EC50: 6.76 µM (active)
HEK293 [5]
  IC50: 12.9 µM (inactive)
H4
  EC50: 7.93 µM (active)
HEK293 [6]
  IC50: 14.7 µM (active)
[7]
  EC50: 9.9 µM (active)
HEK293 [8]
  IC50: > 20 µM (inactive)
HEK293 [9]
  EC50: > 20 µM (inactive)

## O=[As](O)(O)c1ccc(NCc2ccccc2)cc1
Cytochrome P450 2D6
  AC50: inconclusive

## Cc1ccc(NS(=O)(=O)c2ccc(-c3cnc(C4CC4)o3)cc2)c(C)c1
[10]
  EC50: 3.3 µM (active)
[11]
  IC50: 51.2 µM (inactive)
[12]
  EC50: 4.97 µM (inconclusive)
BJ [13]
  EC50: 0.847 µM (inconclusive)
[14]
  EC50: 18.9 µM (inconclusive)
[2]
  AC50: < 0.16 µM (active)
BJ [15]
  EC50: 0.985 µM (active)
[3]
  AC50: 5.23 µM (inconclusive)
[16]
  EC50: 0.502 µM (active)
BJ [17]
  EC50: 1.2 µM (active)

## COc1ccc(-c2nc(-c3cccs3)c(-c3cccs3)[nH]2)cc1O
[18]
  EC50: 4.79 µM (active)
[19]
  EC50: 79.6 µM (not active)
[20]
  IC50: 20 µM (active)
[21]
  EC50: 4.8 µM (active)

## COc1ccc(-c2c(C)nn3c(N)c(-c4ccccc4)cnc23)cc1OC
[22]
  CC50: 43.3 µM (active)
[2]
  AC50: 11.9 µM (active)
[23]
  AC50: 6.96 µM (active)
[3]
  AC50: 34.8 µM (active)

## O=C(NNC(=O)c1cc2cc3ccccc3nc2s1)c1cccc(C(F)(F)F)c1
Cytochrome P450 3A4 [24]
  AC50: 1.26 µM (inconclusive)
Cytochrome P450 2C9
  AC50: inconclusive
[25]
  IC50: 5.86 µM (active)

## CC(=O)NCCNc1nc(-c2ccccc2C)nc2ccccc12
Cytochrome P450 2C9
  AC50: inconclusive

## Cc1ccc(C)c(-n2nc3c4c(ccc3c2O)C(=O)c2ccccc2C4=O)c1
HEK293 [5]
  IC50: 18 µM (inactive)
HEK293 [6]
  IC50: > 20 µM (inactive)
HEK293 [8]
  IC50: > 20 µM (inactive)
HEK293 [9]
  EC50: 11.1 µM (active)

## CN(C)Cc1c[nH]c2ncnc(O)c12
Cytochrome P450 2D6
  AC50: inconclusive

## Cc1noc(C)c1-c1cc(NC2CCNCC2)ncn1
Cytochrome P450 1A2
  AC50: 0.126 µM (inconclusive)
Cytochrome P450 3A4 [1]
  AC50: inconclusive
Cytochrome P450 2C9
  AC50: inconclusive
Cytochrome P450 2C19
  AC50: inconclusive

## CCOC(=O)N1CCC(NS(=O)(=O)c2ccc3c(c2)C(C)(C)C(=O)N3C)CC1
Cytochrome P450 3A4 [24]
  AC50: 15.8 µM (inconclusive)
Cytochrome P450 2C9
  AC50: inconclusive
Cytochrome P450 2C19; read-out: AC50
  AC50: 11.2 µM (inconclusive)
[26]
  EC50: > 260 µM (inactive)
